In PubChem BioAssay AID2060622 (Molecular Pharmacology Branch, DTP, NCI, 2025):
Where “and” joins values, the source holds several entries; their conditions need not be identical. Equal entries are not always repeated.

System: 242566-281-R-J2-PDC complex spheroid viability
Experiment: Anticancer human tumor 242566-281-R-J2-PDC patient-derived pancreatic carcinoma cell line growth inhibition [CLK]
Settings: for viability, T/C: stronger effect = lower value
Method in brief: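 Multi-cell-type spheroids combined patient-derived tumor cells with HUVEC endothelial cells and human mesenchymal stem cells. Paired agents were dosed in half-log steps down from about clinical Cmax, or from 10 microM where Cmax was unknown.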

[1] = curve of first compound, second compound 0.0316 µM
[2] = curve of first compound, second compound 0.1 µM
[3] = curve of first compound, second compound 0.316 µM
[4] = curve of first compound, second compound 1 µM
[5] = curve of first compound, second compound 3.16 µM
[6] = curve of first compound, second compound 10 µM
[7] = second compound 0.0316 µM, first compound 0.0316 µM
[8] = second compound 0.0316 µM, first compound 0.1 µM
[9] = second compound 0.0316 µM, first compound 0.316 µM
[10] = second compound 0.0316 µM, first compound 1 µM
[11] = second compound 0.0316 µM, first compound 3.16 µM
[12] = second compound 0.0316 µM, first compound 10 µM
[13] = second compound 0.1 µM, first compound 0.0316 µM
[14] = second compound 0.1 µM, first compound 0.1 µM
[15] = second compound 0.1 µM, first compound 0.316 µM
[16] = second compound 0.1 µM, first compound 1 µM
[17] = second compound 0.1 µM, first compound 3.16 µM
[18] = second compound 0.1 µM, first compound 10 µM
[19] = second compound 0.316 µM, first compound 0.0316 µM
[20] = second compound 0.316 µM, first compound 0.1 µM
[21] = second compound 0.316 µM, first compound 0.316 µM
[22] = second compound 0.316 µM, first compound 1 µM
[23] = second compound 0.316 µM, first compound 3.16 µM
[24] = second compound 0.316 µM, first compound 10 µM
[25] = second compound 1 µM, first compound 0.0316 µM
[26] = second compound 1 µM, first compound 0.1 µM
[27] = second compound 1 µM, first compound 0.316 µM
[28] = second compound 1 µM, first compound 1 µM
[29] = second compound 1 µM, first compound 3.16 µM
[30] = second compound 1 µM, first compound 10 µM
[31] = second compound 3.16 µM, first compound 0.0316 µM
[32] = second compound 3.16 µM, first compound 0.1 µM
[33] = second compound 3.16 µM, first compound 0.316 µM
[34] = second compound 3.16 µM, first compound 1 µM
[35] = second compound 3.16 µM, first compound 3.16 µM
[36] = second compound 3.16 µM, first compound 10 µM
[37] = second compound 10 µM, first compound 0.0316 µM
[38] = second compound 10 µM, first compound 0.1 µM
[39] = second compound 10 µM, first compound 0.316 µM
[40] = second compound 10 µM, first compound 1 µM
[41] = second compound 10 µM, first compound 3.16 µM
[42] = second compound 10 µM, first compound 10 µM
[43] = second compound 0.0316 µM, first compound 0.00316 µM
[44] = second compound 0.0316 µM, first compound 0.01 µM
[45] = second compound 0.1 µM, first compound 0.00316 µM
[46] = second compound 0.1 µM, first compound 0.01 µM
[47] = second compound 0.316 µM, first compound 0.00316 µM
[48] = second compound 0.316 µM, first compound 0.01 µM
[49] = second compound 1 µM, first compound 0.00316 µM
[50] = second compound 1 µM, first compound 0.01 µM
[51] = second compound 3.16 µM, first compound 0.00316 µM
[52] = second compound 3.16 µM, first compound 0.01 µM
[53] = second compound 10 µM, first compound 0.00316 µM
[54] = second compound 10 µM, first compound 0.01 µM
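Also: spheroids exposed to compounds for 7 days before readout.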
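For viability, T/C in this document: 100% = DMSO vehicle control wells.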

SMILES: C=CC(=O)N1CCN(c2nc(=O)n(-c3c(C)ccnc3C(C)C)c3nc(-c4c(O)cccc4F)c(F)cc23)C(C)C1 (stereo not given)
- viability, T/C (compound 0.0316 µM): 95.5% and 104%
- viability, T/C (compound 0.1 µM): 80.4% and 92.4%
- viability, T/C (compound 0.316 µM): 78.5% and 103%
- viability, T/C (compound 1 µM): 104% and 90.6%
- viability, T/C (compound 3.16 µM): 102% and 88.7%
- viability, T/C (compound 10 µM): 70.8% and 77.6%
- IC50 (curve of compound): > 10000 nM

SMILES: C=C(F)C(=O)N1CCN(c2nc(OCC3CCCN3C)nc3c2CCN(c2cccc4cccc(Cl)c24)C3)CC1CC#N (stereo not given) + CN1CCN(c2cc(C(=O)Nc3cc4cc(-c5cnn(C)c5)ccc4cn3)ccn2)CC1
- IC50 [1]: 4990 nM
- IC50 [2]: 4260 nM
- IC50 [3]: < 31.6 nM
- IC50 [4]: < 31.6 nM
- IC50 [5]: < 31.6 nM
- IC50 [6]: < 31.6 nM
- viability, T/C [7]: 84.6%
- viability, T/C [8]: 115%
- viability, T/C [9]: 104%
- viability, T/C [10]: 114%
- viability, T/C [11]: 82.7%
- viability, T/C [12]: 0.15%
- viability, T/C [13]: 103%
- viability, T/C [14]: 95.9%
- viability, T/C [15]: 90.9%
- viability, T/C [16]: 90.2%
- viability, T/C [17]: 67.7%
- viability, T/C [18]: 0.87%
- viability, T/C [19]: 42.9%
- viability, T/C [20]: 38.7%
- viability, T/C [21]: 50.4%
- viability, T/C [22]: 41.3%
- viability, T/C [23]: 25.2%
- viability, T/C [24]: 0.12%
- viability, T/C [25]: 4.94%
- viability, T/C [26]: 4.71%
- viability, T/C [27]: 4.65%
- viability, T/C [28]: 4.68%
- viability, T/C [29]: 3.14%
- viability, T/C [30]: 0.13%
- viability, T/C [31]: 7.96%
- viability, T/C [32]: 8.51%
- viability, T/C [33]: 7.38%
- viability, T/C [34]: 6.75%
- viability, T/C [35]: 4.99%
- viability, T/C [36]: 0.12%
- viability, T/C [37]: 2.22%
- viability, T/C [38]: 2.75%
- viability, T/C [39]: 2.19%
- viability, T/C [40]: 1.43%
- viability, T/C [41]: 0.37%
- viability, T/C [42]: 0.24%

SMILES: Cn1ncnc1[C@H]1c2n[nH]c(=O)c3cc(F)cc(c23)N[C@@H]1c1ccc(F)cc1 + CNC(=O)c1ccc(Nc2nc(OC3CCCC3)c3c(-c4ccc5nc(C)oc5c4)c[nH]c3n2)c(OC)c1
- IC50 [1]: > 100 nM
- IC50 [2]: > 100 nM
- IC50 [3]: > 100 nM
- IC50 [4]: > 100 nM
- IC50 [5]: 31.1 nM
- IC50 [6]: 2.02 nM
- viability, T/C (second compound 0.0316 µM, first compound 0.000316 µM): 126%
- viability, T/C (second compound 0.0316 µM, first compound 0.001 µM): 105%
- viability, T/C [43]: 104%
- viability, T/C [44]: 127%
- viability, T/C [7]: 91.8%
- viability, T/C [8]: 98.8%
- viability, T/C (second compound 0.1 µM, first compound 0.000316 µM): 100%
- viability, T/C (second compound 0.1 µM, first compound 0.001 µM): 123%
- viability, T/C [45]: 84.1%
- viability, T/C [46]: 92.3%
- viability, T/C [13]: 98.5%
- viability, T/C [14]: 87.8%
- viability, T/C (second compound 0.316 µM, first compound 0.000316 µM): 104%
- viability, T/C (second compound 0.316 µM, first compound 0.001 µM): 86.3%
- viability, T/C [47]: 85.1%
- viability, T/C [48]: 89.9%
- viability, T/C [19]: 79.9%
- viability, T/C [20]: 76.5%
- viability, T/C (second compound 1 µM, first compound 0.000316 µM): 70.9%
- viability, T/C (second compound 1 µM, first compound 0.001 µM): 67.2%
- viability, T/C [49]: 62.5%
- viability, T/C [50]: 64.8%
- viability, T/C [25]: 56.1%
- viability, T/C [26]: 52.4%
- viability, T/C (second compound 3.16 µM, first compound 0.000316 µM): 55.5%
- viability, T/C (second compound 3.16 µM, first compound 0.001 µM): 52%
- viability, T/C [51]: 49.6%
- viability, T/C [52]: 47.6%
- viability, T/C [31]: 56.2%
- viability, T/C [32]: 47%
- viability, T/C (second compound 10 µM, first compound 0.000316 µM): 50.2%
- viability, T/C (second compound 10 µM, first compound 0.001 µM): 53.8%
- viability, T/C [53]: 45.2%
- viability, T/C [54]: 49.8%
- viability, T/C [37]: 50.3%
- viability, T/C [38]: 49.1%

SMILES: CCN1CCN(Cc2ccc(Nc3ncc(F)c(-c4cc(F)c5nc(C)n(C(C)C)c5c4)n3)nc2)CC1 + CN1CCN(c2cc(C(=O)Nc3cc4cc(-c5cnn(C)c5)ccc4cn3)ccn2)CC1
- IC50 [1]: > 1000 nM
- IC50 [2]: > 1000 nM
- IC50 [3]: < 3.16 nM
- IC50 [4]: < 3.16 nM
- IC50 [5]: < 3.16 nM
- IC50 [6]: < 3.16 nM
- viability, T/C [43]: 89.9%
- viability, T/C [44]: 109%
- viability, T/C [7]: 101%
- viability, T/C [8]: 109%
- viability, T/C [9]: 122%
- viability, T/C [10]: 138%
- viability, T/C [45]: 91.7%
- viability, T/C [46]: 83.6%
- viability, T/C [13]: 95.5%
- viability, T/C [14]: 96.3%
- viability, T/C [15]: 122%
- viability, T/C [16]: 123%
- viability, T/C [47]: 39.4%
- viability, T/C [48]: 40.8%
- viability, T/C [19]: 48.7%
- viability, T/C [20]: 54.3%
- viability, T/C [21]: 69.4%
- viability, T/C [22]: 61.1%
- viability, T/C [49]: 5.41%
- viability, T/C [50]: 4.89%
- viability, T/C [25]: 5.53%
- viability, T/C [26]: 6.44%
- viability, T/C [27]: 9.19%
- viability, T/C [28]: 9.16%
- viability, T/C [51]: 6.93%
- viability, T/C [52]: 7.07%
- viability, T/C [31]: 6.34%
- viability, T/C [32]: 7.18%
- viability, T/C [33]: 8.35%
- viability, T/C [34]: 8.64%
- viability, T/C [53]: 2.36%
- viability, T/C [54]: 1.58%
- viability, T/C [37]: 1.75%
- viability, T/C [38]: 1.54%
- viability, T/C [39]: 1.24%
- viability, T/C [40]: 0.71%

SMILES: Nc1ccn(C2OC(CO)C(O)C2(F)F)c(=O)n1 (stereo not given) + CN1CCN(c2cc(C(=O)Nc3cc4cc(-c5cnn(C)c5)ccc4cn3)ccn2)CC1
- IC50 [1]: < 31.6 nM
- IC50 [2]: < 31.6 nM
- IC50 [3]: < 31.6 nM
- IC50 [4]: < 31.6 nM
- IC50 [5]: < 31.6 nM
- IC50 [6]: < 31.6 nM
- viability, T/C [7]: 46.6%
- viability, T/C [8]: 20.6%
- viability, T/C [9]: 10.6%
- viability, T/C [10]: 13.3%
- viability, T/C [11]: 8.86%
- viability, T/C [12]: 6.79%
- viability, T/C [13]: 48.6%
- viability, T/C [14]: 15.4%
- viability, T/C [15]: 10.2%
- viability, T/C [16]: 6.87%
- viability, T/C [17]: 6.64%
- viability, T/C [18]: 5.01%
- viability, T/C [19]: 23.9%
- viability, T/C [20]: 15.3%
- viability, T/C [21]: 10.9%
- viability, T/C [22]: 4.57%
- viability, T/C [23]: 4.57%
- viability, T/C [24]: 3.01%
- viability, T/C [25]: 4.38%
- viability, T/C [26]: 4.08%
- viability, T/C [27]: 3.98%
- viability, T/C [28]: 4.09%
- viability, T/C [29]: 4.15%
- viability, T/C [30]: 3.45%
- viability, T/C [31]: 7.21%
- viability, T/C [32]: 6.5%
- viability, T/C [33]: 5.9%
- viability, T/C [34]: 5.48%
- viability, T/C [35]: 5.49%
- viability, T/C [36]: 5.8%
- viability, T/C [37]: 1.62%
- viability, T/C [38]: 1.77%
- viability, T/C [39]: 1.12%
- viability, T/C [40]: 1.8%
- viability, T/C [41]: 1.55%
- viability, T/C [42]: 1.05%
